Assay results: patent publication US5378706A, “Fused-thiazole derivatives active on the cholinergic system, and pharmaceutical compositions containing same” (Sanofi, priority 1987, dated 1995)
Where two headings read alike, the source gives them in different places.

Key:
[1] = biological target: T1, M2 -type muscarinic cholinergic receptor (Cavia porcellus, UniProt H0VRN8); test: Affinity for the M2-type muscarinic cholinergic receptor, displacement of tritiated N-methylscopolamine (3H-NMS) on smooth guinea-pig ileum muscle homogenate; assay type: binding
T1 construct: on a smooth guinea-pig ileum muscle homogenate; from tissue; host or cells: guinea-pig ileum smooth muscle homogenate
T1 sequence (H0VRN8 1-466): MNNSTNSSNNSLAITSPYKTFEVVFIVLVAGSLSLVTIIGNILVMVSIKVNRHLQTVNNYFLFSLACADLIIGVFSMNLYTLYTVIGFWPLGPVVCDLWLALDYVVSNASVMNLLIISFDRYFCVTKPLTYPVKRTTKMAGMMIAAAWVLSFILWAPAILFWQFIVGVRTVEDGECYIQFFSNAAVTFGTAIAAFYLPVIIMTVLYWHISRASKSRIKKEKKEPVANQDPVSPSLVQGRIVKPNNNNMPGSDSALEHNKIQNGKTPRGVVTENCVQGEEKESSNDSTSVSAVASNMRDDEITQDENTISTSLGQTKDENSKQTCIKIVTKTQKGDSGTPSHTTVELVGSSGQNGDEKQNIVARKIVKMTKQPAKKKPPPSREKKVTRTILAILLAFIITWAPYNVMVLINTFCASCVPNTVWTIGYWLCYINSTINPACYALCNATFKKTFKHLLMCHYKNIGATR
Method: The M1 -type receptors are concentrated in certain regions of the brain, such as the hippocampus, the cerebral cortex and the striatum, and also in the sympathetic ganglia. These binding sites can be selectively labeled with tritiated pirenzepine (^3 H-PZ). The M2 -type receptors predominate in the heart and the ileum and can be labeled with tritiated N-methyl-scopolamine (^3 H-NMS). The selectivity of the products of the invention with respect to the M1 and M2 sites was determined by studying their in vitro interaction with ^3 H-PZ and ^3 H-NMS firmly bound with a high affinity to rat hippocampus membranes and smooth guinea-pig ileum muscle, respectively.
The interaction with the M2 -type muscarinic receptors was studied by in vitro measurement, on a smooth guinea-pig ileum muscle homogenate, of the displacement of tritiated N-methylscopolamine from its specific binding sites. […] The final volume is 1 ml. The reaction is stopped by centrifugation for 5 minutes at 15,000×g. The non-specific binding is determined in the presence of 10 mM atropine sulfate.
The IC50 for ^3 H-PZ displacement represents the affinity for the M1 receptor; the IC50 for ^3 H-NMS displacement represents the affinity for the M2 receptor.

[2] = system: M1 central muscarinic cholinergic receptors; test: Antagonism of rotations induced by intrastriatal injection of pirenzepine in mice; assay type: in vivo, mice (Swiss, CD 1); conditions: for Pirenzepine antagonism ED50 i.p.: 15 minutes before intrastriatal pirenzepine 1 μg; for Pirenzepine antagonism ED50 p.o.: 30 minutes before intrastriatal pirenzepine 1 μg
Method: Pirenzepine (PZ) is a specific antagonist of the M1 central muscarinic cholinergic receptors. The intrastriatal injection of PZ into mice induces rotatory behavoir. The antagonism of this behavoir by the products according to the invention was studied.
The products according to the invention are administered either intraperitoneally (i.p.) or orally (p.o.) after solubilization in distilled water or suspension in a 5% solution of gum arabic. The control animals receive the pure solvent under the same conditions.
The animals used are female mice (Swiss, CD 1, Charles River, France) with a body weight of between 25 and 30 grams.
The pirenzepine is dissolved in a phosphate buffer and the pH of the solution is 6.
The test products or their solvents are administered in a volume of 0.4 ml per 20 g of body weight, either by i.p. injection or orally via an esophageal tube.
The number of contralateral rotations (rotations in the opposite direction to the side injected) was counted for three 2-minute periods after injection of the pirenzepine: 2nd to 4th, 8th to 10th and 13th to 15th minutes. Each treatment consists of 3 to 4 doses and 10 animals per dose. The total number of rotations and the percentage antagonism with respect to the control group are calculated for each treatment.

[3] = biological target: T2, M1 -type muscarinic cholinergic receptor (Rattus norvegicus, UniProt P08482); test: biochemical; assay type: binding; conditions: for ratio R of the IC50 values for the M1 and M2 receptors: selectivity, values correspond to IC50 M2 / IC50 M1
T2 sequence (P08482 1-460): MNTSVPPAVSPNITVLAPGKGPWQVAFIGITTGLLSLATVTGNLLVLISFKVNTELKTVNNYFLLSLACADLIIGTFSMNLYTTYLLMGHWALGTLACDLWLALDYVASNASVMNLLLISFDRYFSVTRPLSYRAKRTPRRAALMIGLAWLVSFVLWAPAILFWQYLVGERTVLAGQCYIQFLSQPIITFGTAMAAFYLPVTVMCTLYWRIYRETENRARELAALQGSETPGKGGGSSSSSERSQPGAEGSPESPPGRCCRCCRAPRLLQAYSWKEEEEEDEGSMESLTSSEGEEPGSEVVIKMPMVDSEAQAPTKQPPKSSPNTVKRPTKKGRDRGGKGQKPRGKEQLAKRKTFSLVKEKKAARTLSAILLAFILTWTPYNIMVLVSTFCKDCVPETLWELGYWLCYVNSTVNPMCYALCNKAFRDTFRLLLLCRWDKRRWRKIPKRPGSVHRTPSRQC
Method: The interaction of the molecules with the M1 -type muscarinic receptors was studied by in vitro measurement, on a rat hippocampus homogenate, of the displacement of tritiated pirenzepine from its specific binding sites. Aliquots (10 μl) of a 5% (w/v) rat hippocampus homogenate in an Na2 HPO4 buffer (50 mM, pH 7.40) are incubated for 2 hours at 4° C. in the presence of ^3 H-PZ (76 Ci/mmol; final concentration 1 nM) and increasing concentrations of the test product. The final volume is 2 ml. The reaction is stopped by centrifugation for 10 minutes at 50,000×g. After decantation and washing of the residues, the bound radioactivity is counted by liquid scintillation. The non-specific binding is determined in the presence of 10 μM atropine sulfate.

[4] = Acute toxicity, 24 hours mortality after i.p. administration to mice; conditions: mouse, in vivo, ip, female mice, 20 g
Method: Finally, the acute toxicity was determined for various products according to the invention. The products were administered intraperitoneally in increasing doses to groups of 10 female mice (Swiss, CD 1, Charles River, France) with a body weight of 20 g.

[5] = guinea-pig ileum smooth muscle homogenate, 3H-NMS 0.3 nM, 20 minutes at 30° C., pH 7.5, read-out: IC50 3H-NMS (M2)
[6] = rat hippocampus homogenate, 3H-PZ 1 nM, 2 hours at 4° C., pH 7.40, read-out: IC50 3H-PZ (M1)

Structure (SMILES)	IC50 [1] [µM]	Pirenzepine antagonism ED50 i.p. [2] [mg/kg]	Pirenzepine antagonism ED50 p.o. [2] [mg/kg]	IC50 [3] [µM]	ratio R of the IC50 values for the M1 and M2 receptors [3]	LD50 at 24 h [4] [mg/kg]	IC50 ([3]; read-out: IC50 3H-PZ (M1)) [µM]	IC50 [1, 5] [µM]	IC50 [3, 6] [µM]
COC(=O)C1=CCCN(C)C1 [Arecoline, reference compound]	4.5	1	0.5	–	–	–	–	–	–
O=C1CCCN1CC#CCN1CCCC1 [Oxotremorine, reference compound]	0.2	0.005	–	0.24	1	–	–	–	–
Cl.Cl.c1ccc2c(c1)CCc1sc(NCCN3CCOCC3)nc1-2 [SR 44273 A, 2-(2-Morpholinoethylamino)-4,5-dihydronaphtho[1,2-d]thiazole dihydrochloride]	–	–	–	–	–	> 100	–	–	–
CCN(CC)CCNc1ncc(-c2ccccc2)s1.Cl.Cl [SR 44318 A, 2-[(2-Diethylaminoethyl)amino]-5-phenylthiazole dihydrochloride]	–	1.5	3	–	11	–	3.4	38	–
CCN(CC)CCNc1nc2c(s1)CCCc1ccccc1-2 [SR 44323 A]	–	10	–	–	5	–	–	8.5	1.7
CCN(CC)CCCNc1nc2c(s1)CCCc1ccccc1-2 [SR 44326 A]	–	3	–	–	> 45	–	–	> 100	2.2
CN(C)CCCNc1nc2c(s1)CCCc1ccccc1-2 [SR 44327 A]	–	10	–	–	20	–	–	38	1.9
CCN(CC)CCCNc1ncc(-c2ccccc2)s1 [SR 44346 A]	–	1	–	–	12.5	–	–	25	2
CCN(CC)CCNc1nc2c(s1)CCc1ccccc1-2 [SR 44393 A]	–	3	–	–	15	–	–	42	2.7
CCN(CC)CCNc1nc2c(s1)CCCc1ccc([N+](=O)[O-])cc1-2.Cl.Cl [SR 44411 A, 2-[(2-Diethylaminoethyl)amino]-9-nitro-5,6-dihydro-4H-benzo[6,7]cyclohepta[1,2-d]thi azole dihydrochloride]	–	15	–	–	7	–	0.9	6.7	–
Cc1cc(C)c(-c2csc(NCCCN(C)C)n2)c(C)c1 [SR 44421 A]	–	–	0.2	–	> 27	–	–	> 100	3.6
CCN(CC)CCCNc1nc(-c2ccccc2)c(-c2ccccc2)s1 [SR 44435 A]	–	2	–	–	8	–	–	3	0.36
Cc1nc(NCCCN(C)C)sc1-c1ccccc1 [SR 44467 A]	–	–	3	–	25	–	–	38	1.5
CN(C)CCCNc1nc(-c2ccc(Cl)cc2)cs1 [SR 44493 A]	–	–	0.3	–	28	–	–	45	1.6
